Tests used:
OATP1A1 = test: Expression level of OATP1A1 in rat liver by UHPLC-MS/MS; type: in vivo; details: UDCA group, ANIT-treated rats; mean ± S.D.
Protocol: (§2) Male Sprague Dawley rats (230 ± 20 g, 6–8 weeks of age) were purchased from B&K Laboratory Animal, Corp. Ltd. (Shanghai, China) and fed in the Laboratory Animal Center of Shanghai University of Traditional Chinese Medicine. All rats were allowed to acclimatize for 3 days before experimentation. The rats were randomly divided into six groups (n = 5 for each group). […] The rats in groups 4, 5, and 6 were intragastrically administered YCHD every 24 h for 10 consecutive days. The rats in group 3 were orally administered UDCA at a dose of 100 mg/kg every 24 h for 10 consecutive days, which is well-documented to treat induced liver injury and cholestasis ([Chen et al., 2016]; [Cao et al., 2017]). Moreover, groups 1 and 2 were intragastrically treated with physiological saline (0.9%) at a dose of 1 mL/100 g. […] At the end of the experiment, all rats were euthanized by CO2 inhalation. The serum samples were stored at -70°C until analysis, and liver samples were isolated and stored at -70°C for further analysis, whereas the central part of the right large lobe of the liver was used for histological examination. […]
(§3) Total membrane protein was isolated (in triplicate) from liver tissue according to the Native Membrane Protein Extraction Kit protocol. Subsequently, protein concentrations were determined by applying the BCA Protein Assay Kit. […]

[1] = test system: ANIT-induced intrahepatic cholestasis; test: Bile flow rate in ANIT-induced cholestatic rats; type: in vivo, rat; details: UDCA 100 mg/kg i.g. + ANIT 50 mg/kg; over 360 min at 48 h after ANIT; not significant vs model
Protocol: (§1) Ltd. (Shanghai, China) and fed in the Laboratory Animal Center of Shanghai University of Traditional Chinese Medicine. […] The rats were randomly divided into six groups (n = 5 for each group). […] [Cao et al., 2017]). […] Before and 24 h after modeling, retro-orbital blood samples were collected in a coagulation tube, and they were then centrifuged at 4°C for 10 min (4000 rpm) to obtain the serum for the assay of ALT, AST, TBIL, DBIL, and TBA. At the end of the experiment, all rats were euthanized by CO2 inhalation. The serum samples were stored at -70°C until analysis, and liver samples were isolated and stored at -70°C for further analysis, whereas the central part of the right large lobe of the liver was used for histological examination.  FIGURE 2 The scheme of the animal experimental design. […] UDCA, positive control group treated with ursodeoxycholic acid (UDCA) (100 mg/kg, […].); […] A closed IV catheter system (Becton Dickinson, United States) was applied to cannulate the bile duct, and the bile specimens were collected into tubes at 2 h intervals for 6 h. The collected serum samples were maintained at room temperature to dissolve. The serum levels of ALT, AST, TBIL, DBIL, and TBA were then determined using a chemistry analyzer system (HITACHI 7080, Japan).

[2] = test system: ANIT-induced cholestatic liver injury; test: Serum biochemistry (ALT, AST, TBIL, DBIL, TBA) in ANIT-induced cholestatic liver injury; type: in vivo, rat
Protocol: as §1

MATE1 = test: Expression level of MATE1 in rat liver by UHPLC-MS/MS; type: in vivo
Description: Male Sprague Dawley rats (230 ± 20 g, 6–8 weeks of age) were purchased from B&K Laboratory Animal, Corp. Ltd. (Shanghai, China) and fed in the Laboratory Animal Center of Shanghai University of Traditional Chinese Medicine. All rats were allowed to acclimatize for 3 days before experimentation. The rats were randomly divided into six groups (n = 5 for each group). […]
Biotransformation of xenobiotics and endogenous compounds is a crucial step in the absorption and elimination of potentially harmful substances from the human body, a process that could be affected by the levels of pharmacokinetic enzymes and transporter proteins. […] Previous methods of protein quantification are immunological, such as immunoblotting ([Zhang et al., 2016]), […] and two-dimensional electrophoresis ([Bruschi et al., 2015]). […] A milestone in quantitative protein analysis was the introduction of mass spectrometry-based analysis using shotgun proteomic assays with relative protein quantification, which has advantages in terms of absolute accuracy, stability, operability, and efficiency over traditional quantitative methods ([Wang et al., 2015]). […]

[3] = test system: ANIT-induced cholestatic liver injury; test: Liver histopathological examination (H&E) in ANIT-induced cholestatic rats; type: in vivo, rat; details: UDCA + ANIT 50 mg/kg
Protocol: Male Sprague Dawley rats (230 ± 20 g, 6–8 weeks of age) were purchased from B&K Laboratory Animal, Corp. Ltd. (Shanghai, China) and fed in the Laboratory Animal Center of Shanghai University of Traditional Chinese Medicine. All rats were allowed to acclimatize for 3 days before experimentation. The rats were randomly divided into six groups (n = 5 for each group). […] Moreover, groups 1 and 2 were intragastrically treated with physiological saline (0.9%) at a dose of 1 mL/100 g. […] At the end of the experiment, all rats were euthanized by CO2 inhalation. The serum samples were stored at -70°C until analysis, and liver samples were isolated and stored at -70°C for further analysis, whereas the central part of the right large lobe of the liver was used for histological examination.

MRP2 = test: Expression level of MRP2 in rat liver by UHPLC-MS/MS; type: in vivo
Protocol: as §2, §3

[4] = UDCA 100 mg/kg i.g. daily 10 days, ANIT 50 mg/kg on day 8, serum
[5] = UDCA group, ANIT-treated rats, mean ± S.D.
[6] = UDCA-treated cholestatic rats, liver, not statistically significant

C[C@H](CCC(=O)O)[C@H]1CC[C@H]2[C@@H]3[C@@H](O)C[C@@H]4C[C@H](O)CC[C@]4(C)[C@H]3CC[C@]12C [UDCA, Ursodeoxycholic acid]
Oatp1a1 expression level in rat liver (OATP1A1): 3.42±1.23 fmol/μg protein | bile flow rate [1]: 0.29 ± 0.12 μL/min⋅100 g B.W. | ALT [2, 4]: 400.6±200.0 IU/L | AST [2, 4]: 611.8±257.2 IU/L | DBIL [2, 4]: 21.2 ± 9.0 µmol/L | TBA [2, 4]: 428.1 ± 55.9 µmol/L | TBIL [2, 4]: 28.2 ± 19.0 µmol/L | serum TBA decreased to (printed), compared with the control group (printed) ([2]; UDCA 100 mg/kg, ANIT-treated rats, p < 0.001): 30.9% | serum DBIL decreased to (printed), compared with the control group (printed) ([2]; UDCA 100 mg/kg, ANIT-treated rats, p < 0.01): 40.9% | Mate1 expression level in rat liver (MATE1; [5]): 3.43±1.38 fmol/μg protein | MATE1 expression upregulated, fold (MATE1; [6]): 1.7 fold | liver histopathology (H&E) [3]: hepatocyte hydropic degeneration with less neutrophil infiltration and a milder degree of bile duct epithelial damage | Mrp2 expression level in rat liver (MRP2; [5]): 2.21±0.87 fmol/μg protein | MRP2 expression upregulated, fold (MRP2; [6]): 1.5 fold

From article PMC5962729 (Frontiers in Pharmacology, 2018)
